# In US20210046106A1, “METHODS OF TREATING CANCER WITH ANDROGEN DEPRIVATION THERAPY IN COMBINATION WITH AN INHIBITOR OF THE SP1 TRANSCRIPTION FACTOR” (The Board of Trustees of the Leland Stanford Junior …, priority 2019, published 2021):
# Assays:
# PSA = assay: Phase 1 trial: PSA in the subset of patients with prostate cancer; type: in vivo, human
# Excerpt: There was no evidence of a selenite dose response relationship, but patient numbers were too small and the patients too heterogeneous to draw a definitive conclusion about the presence or absence of a dose response relationship. Of note, patients were maintained on whatever ADT they were on before study entry, as discontinuation of ADT could have been even more of a confounding variable.
# [1] = system: tumor in irradiated field; assay: Phase 1 trial: tumor response in irradiated field (imaging); type: in vivo, human; set-up: key: CR resolution of uptake; PR decrease in extent of involvement (# and size of lesion ≥ 50% observed); SD same extent of involvement (# and size of lesions)
# Excerpt: All but one patient received palliative radiation therapy to symptomatic bone metastases. Quantitation of response in bone is difficult and imprecise. Furthermore, patients were imaged as per standard of care, using a variety of imaging modalities, including bone scan, which is not applicable to RECIST scoring. […] There was no apparent dose response relationship.
# [2] = SECAR study, cited from earlier work
# [3] = system: breast and ovarian cancer cell lines; details: 2 mg/kg, subcutaneous injection; cited from earlier work
# GI epithelium = assay: Preclinical: radiosensitization of normal GI epithelium; details: preclinical studies
# prostate cancer tumors = assay: Preclinical: growth of well-established prostate cancer tumors in mice; details: i.p. and p.o.
# [4] = Phase 1 trial: population PK model (NONMEM, 1-compartment, oral absorption) and simulations; details: human, in vivo
structure (smiles),measurement,setting,value
"O=[Se](O)O [sodium selenite, Sodium selenite pentahydrate]",PSA % Change,"PSA; patient 2, 5.5 mg cohort, FU visit 2 M vs Day 1",−77.9%
same,PSA Value FU,"PSA; patient 2, 5.5 mg cohort, FU visit 2 M, Day 1 PSA 39.83",8.79 ng/mL
same,PSA % Change,"PSA; patient 3, 5.5 mg cohort, FU visit 2.25 M vs Day 1",6.2%
same,PSA Value FU,"PSA; patient 3, 5.5 mg cohort, FU visit 2.25 M, Day 1 PSA 225",239 ng/mL
same,PSA % Change,"PSA; patient 4, 11 mg cohort, FU visit 3.25 M vs Day 1",−72.9%
same,PSA Value FU,"PSA; patient 4, 11 mg cohort, FU visit 3.25 M, Day 1 PSA 131.83",35.77 ng/mL
same,PSA % Change,"PSA; patient 5, 11 mg cohort, FU visit 4 M vs Day 1",−52.6%
same,PSA Value FU,"PSA; patient 5, 11 mg cohort, FU visit 4 M, Day 1 PSA 40.61",19.25 ng/mL
same,PSA % Change,"PSA; patient 6, 11 mg cohort, FU visit 4 M vs Day 1",−67.3%
same,PSA Value FU,"PSA; patient 6, 11 mg cohort, FU visit 4 M, Day 1 PSA 0.98",0.32 ng/mL
same,PSA % Change,"PSA; patient 7, 16.5 mg cohort, FU visit 2.25 M vs Day 1",1155.7%
same,PSA Value FU,"PSA; patient 7, 16.5 mg cohort, FU visit 2.25 M, Day 1 PSA 1.74",21.85 ng/mL
same,PSA % Change,"PSA; patient 8, 16.5 mg cohort, FU visit 2.75 M vs Day 1",−59.4%
same,PSA Value FU,"PSA; patient 8, 16.5 mg cohort, FU visit 2.75 M, Day 1 PSA 3.3",1.34 ng/mL
same,PSA % Change,"PSA; patient 9, 16.5 mg cohort, FU visit 3.25 M vs Day 1",−11%
same,PSA Value FU,"PSA; patient 9, 16.5 mg cohort, FU visit 3.25 M, Day 1 PSA 1",0.89 ng/mL
same,PSA % Change,"PSA; patient 10, 33 mg cohort, FU visit 3 M vs Day 1",−67.1%
same,PSA Value FU,"PSA; patient 10, 33 mg cohort, FU visit 3 M, Day 1 PSA 196",64.46 ng/mL
same,"decrease in PSA, range","PSA; the seven of nine prostate cancer patients with a decrease, first follow up 2-4 months after RT",11-78%
same,Tumor Response in Irradiated Field,"[1]; patient 2 (prostate, 5.5 mg), Field 1, bone, BS 2 mo.",CR
same,Tumor Response in Irradiated Field,"[1]; patient 2 (prostate, 5.5 mg), Field 2, bone, BS 2 mo.",PR (PR decrease in extent of involvement (# and size of lesion ≥ 50% observed))
same,Tumor Response in Irradiated Field,"[1]; patient 3 (prostate, 5.5 mg), bone, BS 1 mo.",SD
same,Tumor Response in Irradiated Field,"[1]; patient 4 (prostate, 11 mg), bone, BS 1 mo.",CR
same,Tumor Response in Irradiated Field,"[1]; patient 5 (prostate, 11 mg), bone, BS 3 mo., ↓ intensity of uptake",SD ( ↓ Intensity of uptake)
same,Tumor Response in Irradiated Field,"[1]; patient 6 (prostate, 11 mg), bone, BS 5 mo., change from diffuse to patch involvement",PR (Change from diffuse to patch involvement (PR decrease in extent of involvement (# and size of lesion ≥ 50% observed))
same,Tumor Response in Irradiated Field,"[1]; patient 7 (prostate, 16.5 mg), bone, BS 1 mo., ↓ intensity of uptake",SD (↓ intensity of uptake)
same,Tumor Response in Irradiated Field,"[1]; patient 8 (prostate, 16.5 mg), bone, MRI 2 mo.",SD
same,Tumor Response in Irradiated Field,"[1]; patient 9 (prostate, 16.5 mg), bone, CT and MRI 3 mo.",SD
same,Tumor Response in Irradiated Field,"[1]; patient 10 (prostate, 33 mg), Field 1, bone, CT 4 mo.",PD (PD ≥ 20% ↑ sum of diameters)
same,Tumor Response in Irradiated Field,"[1]; patient 10 (prostate, 33 mg), Field 2, bone, CT 4 mo.",SD
same,Tumor Response in Irradiated Field,"[1]; patient 11 (multiple myeloma, 33 mg), bone, PET-CT 6 mo., almost complete metabolic resolution",PR (almost complete metabolic resolution) (PR ≥ 30% ↓ sum of diameters)
same,Tumor Response in Irradiated Field,"[1]; patient 12 (MPNST, 33 mg), lymph node, CT 1 mo.",SD
same,Tumor Response in Irradiated Field,"[1]; patient 13 (NSCLC, 33 mg), bone, CT, MRI and PET-CT 1 mo.",PD (PD ≥ 20% ↑ sum of diameters)
same,Tumor Response in Irradiated Field,"[1]; patient 15 (NSCLC, 49.5 mg), bone, BS 2 mo.",SD
same,MTD,"[2]; i.v. daily for 5 consecutive days for 2 or 4 weeks, 34 patients",10.2 mg/m^2
same,most common side effects,[2]; i.v.,"fatigue, nausea and cramps in fingers and legs"
same,effects on the host,[3],without apparent ill effects on the host
same,sensitization of GI epithelium to radiation,GI epithelium,did not sensitize GI epithelium to radiation
same,toxicity at the growth-inhibiting doses,prostate cancer tumors,no detectable toxicity
same,Tmax,[4]; both,4.05 h
same,AUC,"[4]; both, 1100 mcg",6160 ng·h/mL
same,Cmax,"[4]; both, 1100 mcg",301 ng/mL
same,AUC,"[4]; both, 5500 mcg",3630 ng·h/mL
same,Cmax,"[4]; both, 5500 mcg",215 ng/mL
same,Tmax,"[4]; both, 5500 mcg",3.65 h
same,AUC,"[4]; both, 16500 mcg",8280 ng·h/mL
same,Cmax,"[4]; both, 16500 mcg",366 ng/mL
same,Tmax,"[4]; both, 16500 mcg",4.15 h
same,AUC,"[4]; both, 33000 mcg",13300 ng·h/mL
same,Cmax,"[4]; both, 33000 mcg",496 ng/mL
same,Tmax,"[4]; both, 33000 mcg",4.35 h
same,AUC,"[4]; both, 49500 mcg",17000 ng·h/mL
same,Cmax,"[4]; both, 49500 mcg",593 ng/mL
same,Tmax,"[4]; both, 49500 mcg",4.4 h
same,half-life,"[4]; half-life, simple formulation used in phase 1 trial",~19 h
same,AUC,"[4]; po, 5.5 mg",3700 ng·h/mL
same,Cmax,"[4]; po, 5.5 mg",214 ng/mL
same,AUC,"[4]; po, 11 mg",6250 ng·h/mL
same,Cmax,"[4]; po, 11 mg",301 ng/mL
same,AUC,"[4]; po, 16.5 mg",8360 ng·h/mL
same,Cmax,"[4]; po, 16.5 mg",366 ng/mL
same,AUC,"[4]; po, 33 mg",13300 ng·h/mL
same,Cmax,"[4]; po, 33 mg",497 ng/mL
same,AUC,"[4]; po, 49.5 mg",16900 ng·h/mL
same,Cmax,"[4]; po, 49.5 mg",595 ng/mL
same,half-life,"[4]; po, half-life calculated from population PK model, patients with metastatic cancer",~18.5 h
